Assay results reported in patent EP4741420A1, “PHARMACEUTICAL COMPOSITION FOR PREVENTING OR TREATING OBESITY COMPRISING GLP ANALOGUE AS ACTIVE INGREDIENT” (priority 2023, dated 2025).
Peptide text beside a SMILES is read from it.

Experiments:
GLP-1R = GLP-1R (Homo sapiens, UniProt P43220); assay: GLP-1 activation: cell-based cAMP assay in GLP-1R/CHO cells
[1] = test system: diet-induced obesity (DIO) mouse model; assay: DIO mouse model QD: weight loss and cumulative food intake (Example 7-1); format: in vivo; conditions: DIO mice, QD (once daily), 4-week administration, 45 nmol/kg/dose
Description: The obesity treatment effect of the long-acting GLP analog prepared in Example 1 was evaluated. Specifically, an obesity animal model was prepared to confirm the obesity treatment effect, and after administering a certain amount of material, the model was subjected to measurement of a body weight and the change in food intake, and biochemical tests. First, to establish a diet-induced obesity mouse model, C57BL/6 DIO mice were fed a high-fat diet for 12 weeks, resulting in a body weight that was 130% that of the control (DIO model). Afterward, the mice were grouped at a specific time point to determine the average weight of the DIO model (46.2±2.2), followed by drug administration to the mice for 4 weeks. Here, the body weight and food intake were measured daily.
(§1) The anti-obesity effects of SEQ ID NO: 1 prepared in Example 1, and SEQ ID NOs: 6 and 7 prepared in Example 4 were analyzed. […] In addition, as an experimental model, a diet-induced obesity (DIO) mouse model fed a high-fat diet for 3 months was used.
To analyze the anti-obesity effect, first, the comparative analysis of weight loss effect and cumulative food intake was conducted. The experimental method was the same as described in Example 3.

[2] = Mouse PK after single subcutaneous administration, LC-MS/MS of plasma; format: in vivo, mice; conditions: male, C57BL/6N, mouse, in vivo, sc
Description: Each of the experimental groups and the control was subcutaneously administered once to the dorsal area of a total of 12 mice using a 1 mL syringe equipped with a 26-gauge needle at a dose of 0.2 mg/5 mL/kg. After drug administration, approximately 0.04 to 0.05 mL of blood was collected per individual at the time scheduled for the orbital vein (4 mice were alternately sampled), and the blood collection times were 1, 2, 4, 8, 24 ,32 ,48, 56, 72, 96, and 120 hours. All plasma samples were analyzed using a self-developed LC-MS/MS assay. Pharmacokinetic analysis of blood drugs was performed using non-compartmental analysis, and analysis of pharmacokinetic parameters was performed using Phoenix WinNolin 64 (Version. 8.3.5 340).

[3] = test system: diet-induced obesity (DIO) mouse model; assay: DIO mouse model QD: fat weight by tissue (Example 7-3); format: in vivo; conditions: fat weight of tissue, DIO mice, QD (once daily), 45 nmol/kg/dose
Description: as §1
To analyze the anti-obesity effect, the amount of fat by tissue was measured postmortem to further confirm the efficacy of the peptide in obesity. Specifically, the epididymal, mesenteric, inguinal, and perirenal tissues of animals euthanized by decapitation were excised to measure the fat weights for each tissue and then photographed.

[4] = test system: diet-induced obesity (DIO) mouse model; assay: DIO mouse model QD: hepatic triglyceride measurement (Example 8-3); format: in vivo; conditions: liver tissue, DIO mice, QD (once daily), 45 nmol/kg/dose
Description: To measure hepatic triglyceride levels, triglycerides in liver tissue excised on the necropsy day were analyzed using a measurement kit (Biomax, Cat no. BM-TGR-100).

C57BL/6 DIO mice = assay: Diet-induced obesity mouse model: blood/serum biochemical tests (Example 3); format: in vivo; conditions: after 4 weeks, 0.20 mg/kg/dose (dose from Table 3)
Description: Here, the body weight and food intake were measured daily.
(§2) In addition, after the experiment was completed, blood and serum samples were obtained from each mouse model, and biochemical tests were performed for blood glucose, total cholesterol, high-density lipoprotein (HDL), low-density lipoprotein (LDL), and triglycerides.

[5] = test system: diet-induced obesity (DIO) mouse model; assay: DIO mouse model QD: liver Oil Red O staining (Example 8-4); format: in vivo; conditions: DIO mice, QD (once daily), 45 nmol/kg/dose
Description: Finally, to confirm the anti-obesity effect in the liver, liver Oil Red O staining analysis was performed. ORO staining is a staining method used to detect triglycerides (fat) in adipose-related diseases, and used to differentiate fat embolism, liposarcoma, hepatic steatosis, and lipid accumulation disorders. In addition, it can also detect lipid complexes, such as phospholipids. For ORO analysis, liver tissue was processed in 30% sucrose in a refrigerator for 3 days to prepare frozen tissue sections, which were used to prepare OCT-embedded frozen blocks. Cryosections were prepared and stained with ORO.

[6] = test system: diet-induced obesity (DIO) mouse model; assay: DIO mouse model QD: obesity-related factors in plasma (Example 7-4); format: in vivo; conditions: DIO mice, QD (once daily), 45 nmol/kg/dose
Description: as §2, §1
To analyze the anti-obesity effect, mouse plasma was obtained postmortem to measure obesity-related factors in plasma. Here, the analysis method was the same as described in Example 3.

[7] = test system: diet-induced obesity (DIO) mouse model; assay: DIO mouse model QD: liver damage markers AST/ALT (Example 8-1); format: in vivo; conditions: serum, DIO mice, QD (once daily), 45 nmol/kg/dose
Description: The anti-obesity effect in the liver was analyzed for the same materials used in Example 7. Specifically, liver damage marker (AST/ALT) analysis, liver weight/fatty liver examination, hepatic triglyceride measurement, and liver ORO staining analysis were performed.
To analyze the liver damage markers, AST/ALT, blood biochemical analysis was performed on the blood of a material-treated obese mouse model. Specifically, the collected blood was divided into two tubes, approximately 200 µL of the blood was put into each EDTA tube, and the remaining volume was injected into a vacutainer tube containing a coagulant. Blood collected in an EDTA tube was used to measure glycated hemoglobin on the same day, while the blood collected in the vacutainer tube was left at room temperature for 15 to 20 minutes to coagulate, and then centrifuged for 10 minutes to obtain serum. The serum was used for blood biochemical analysis.

Sequence of GLP-1R (P43220 24-463): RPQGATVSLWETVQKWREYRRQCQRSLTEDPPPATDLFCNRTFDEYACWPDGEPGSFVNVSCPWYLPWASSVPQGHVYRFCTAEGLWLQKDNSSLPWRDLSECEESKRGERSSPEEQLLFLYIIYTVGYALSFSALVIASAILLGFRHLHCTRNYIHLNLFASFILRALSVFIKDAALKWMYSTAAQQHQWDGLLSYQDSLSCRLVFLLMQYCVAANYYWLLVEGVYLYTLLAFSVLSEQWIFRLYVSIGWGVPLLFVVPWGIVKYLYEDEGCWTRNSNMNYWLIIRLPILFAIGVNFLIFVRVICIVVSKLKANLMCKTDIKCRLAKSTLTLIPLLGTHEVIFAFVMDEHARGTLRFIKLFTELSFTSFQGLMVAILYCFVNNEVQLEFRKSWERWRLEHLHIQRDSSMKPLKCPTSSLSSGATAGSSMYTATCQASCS

Q: With `CCCCCCCCCCCCCCCC(=O)N[C@@H](CCC(=O)NCCCC[C@H](NC(=O)[C@H](CCCCN)NC(=O)[C@H](CC(=O)O)NC(=O)[C@@H](NC(=O)[C@@H](NC(=O)[C@H](CCCCN)NC(=O)[C@@H](NC(=O)[C@H](CCC(N)=O)NC(=O)[C@@H](NC(=O)[C@H](CC(C)C)NC(=O)[C@H](Cc1c[nH]c2ccccc12)NC(=O)[C@H](CC(N)=O)NC(=O)[C@@H](NC(=O)[C@H](Cc1ccccc1)NC(=O)[C@H](CC(=O)O)NC(=O)[C@H](CCCNC(=N)N)NC(=O)[C@H](C)NC(=O)[C@H](C)NC(=O)[C@H](CC(C)C)NC(=O)[C@H](C)NC(=O)[C@H](CC(=O)O)NC(=O)[C@H](CC(C)C)NC(=O)[C@H](Cc1ccc(O)cc1)NC(=O)[C@@H](NC(=O)[C@H](CO)NC(=O)[C@H](CC(C)C)NC(=O)[C@H](CC(=O)O)NC(=O)[C@H](CO)NC(=O)[C@@H](NC(=O)[C@H](Cc1ccccc1)NC(=O)[C@@H](NC(=O)CNC(=O)[C@H](CCC(=O)O)NC(=O)CNC(=O)[C@@H](N)Cc1c[nH]cn1)[C@@H](C)O)[C@@H](C)O)[C@@H](C)O)[C@@H](C)CC)[C@@H](C)CC)[C@@H](C)O)[C@@H](C)CC)[C@@H](C)O)C(=O)O)C(=O)O` [HU020K2FA] (HELM PEPTIDE1{H.G.E.G.T.F.T.S.D.L.S.T.Y.L.D.A.L.A.A.R.D.F.I.N.W.L.I.Q.T.K.I.T.D.K.K}|PEPTIDE2{[CCCCCCCCCCCCCCCC(=O)[*:2]].[gGlu]}$PEPTIDE1,PEPTIDE2,35:R3-2:R2$$$V2.0; N-terminus and C-terminus assumed) as the compound, how does the “GLP-1 activity Compared to GLP-1 (Exendin-4)” value (GLP-1R; Example 5, relative to Exendin-4) read?
A: 23.6%

Q: And the “Average (n=4) Relative to GLP-1 (Exendin-4) %” value (GLP-1R; GLP-1R/CHO cells, cAMP, relative to Exendin-4 (Example 2))?
A: 63.4±29.4%

Q: And the “Comparison of weight change (%)” value [1]?
A: -16.0±3.2%

Q: What about the “Weight” value [1] of the same compound?
A: 37.5 ± 2.6 g

Q: And the “Weight (%) (Normalized to DIO vehicle)” value [1]?
A: 80.3±4.4%

Q: And the “Food intake” value ([1]; cumulative)?
A: 16.0 ± 1.8 g

Q: And the Tmax [2]?
A: 8 h

Q: What about the half-life [2] of the same compound?
A: 6.6 h

Q: What about the Epididymal [3] of the same compound?
A: 1.71±0.16

Q: And the Inguinal [3]?
A: 2.37±0.21

Q: And the Mesentric [3]?
A: 0.74±0.21

Q: What about the Perirenal [3] of the same compound?
A: 0.33±0.08

Q: And the “Liver TG levels (nmol/µ)” value [4]?
A: 0.81±0.11 nmol/µ

Q: And the “Blood glucose” value (C57BL/6 DIO mice)?
A: 192.0 ± 20.2 mg/dL

Q: What about the “High-density lipoprotein” value (C57BL/6 DIO mice) of the same compound?
A: 76.0 ± 4.0 mg/dL

Q: What about the “Low-density lipoprotein” value (C57BL/6 DIO mice) of the same compound?
A: 9.8 ± 1.5 mg/dL

Q: And the “Toal cholesterol” value (C57BL/6 DIO mice)?
A: 134.8 ± 10.7 mg/dL

Q: And the “Triglyceride” value (C57BL/6 DIO mice)?
A: 13.6 ± 4.8 mg/dL

Q: And the “ORO positive area (%)” value [5]?
A: 1.41±0.66%

Q: And the “HbA1c (%)” value ([6]; blood)?
A: 4.39±0.21%

Q: And the “GLU” value ([6]; plasma)?
A: 209.2 ± 9.3 mg/dL

Q: And the “HDL” value ([6]; plasma)?
A: 100.4 ± 9.3 mg/dL

Q: What about the “LDL” value ([6]; plasma) of the same compound?
A: 8.9 ± 9.3 mg/dL

Q: And the “TCHO” value ([6]; plasma)?
A: 198.6 ± 24.3 mg/dL

Q: What about the “TG” value ([6]; plasma) of the same compound?
A: 75.1 ± 19.4 mg/dL

Q: What about the “ALT (U/L)” value [7] of the same compound?
A: 34.7±5.9 U/L

Q: And the “AST (U/L)” value [7]?
A: 68.5±9.2 U/L
